The nature of this series: Isotope tracer infusion: circulatory turnover flux (Fcirc). Particulars: fasted mice. In kind it is in vivo, mouse. An excerpt: To confirm this idea, and to test whether the same might be true of circulating 3HB and acetoacetate, a set of isotope-tracer infusion experiments was devised. The circulatory turnover flux (Fcirc) of a given metabolite refers to the rate at which tissues collectively take up the metabolite from arterial circulation; alternatively, Fcirc can be defined as the rate at which tissues collectively excrete the metabolite into the venous circulation, as these two rates are equal at steady state in minimally perturbative tracer infusions.
Isotope tracer infusion. For lactate circulatory turnover flux measurements, 10-14 weeks old C57BL/6 mice were catheterized via both left carotid artery and right jugular vein, as non-perturbative arterial blood sampling is required for precise measurement of circulating lactate labeling. Mice were allowed to recover for 5 days. Mice were fasted from ZT2 to ZT6.5. Sodium [2-^2H] or [U-^13C]lactate solution was diluted to 5% w/w in water, and infused into the double catheterized mice from ZT6.5 to ZT9 to pseudo steady state. Arterial blood was sampled to calculate the turnover rate for ^2H or ^13C lactate.
For other tracing experiments, 10-14 weeks old C57BL6/J mice or mice bearing tumors (KPC flank allografts or Kras^LSL-G12D/+Trp53^−/−Pdx-1-Cre GEMM, tumor sizes ˜150 mm^3) were catheterized via right jugular vein. Mice were allowed to recover from surgery for 3-5 days. For 3HB circulatory turnover flux experiments, mice were fasted from ZT2 to ZT6.5, and [3,4,4,4-^2H] or [U-^13C]3HB were infused to catheterized mice from ZT6.5 to ZT9. Tail blood was sampled to calculate the turnover rate for ^2H or ^13C 3HB.
Metabolic flux quantitation. Circulatory turnover flux, Fcirc was calculated as previously described (Hui et al., 2017), using arterial serum for lactate due to its substantial arterial-venous labeling gradient and tail vein serum for other nutrients:
[formula] R is the infusion rate of the labeled tracer and L is the fractional enrichment of infused labeled form of the metabolite tracer. Fcirc values of ^2H-labeled metabolites were corrected for kinetic isotope effect (KIE, determined from the enzymatic assays) by multiplying the observed Fcirc by KIE value of ^2H tracer.

The molecule `[13CH3][13CH](O)[13CH2][13C](=O)O` (stereo not shown) [^13C-labeled 3HB, [U-^13C]3HB] came in with a circulatory turnover flux of about 40 nmol/g/min.
Molecule `[2H]C([2H])([2H])C([2H])(O)CC(=O)O` (stereo not shown) [^2H-labeled 3HB, [3,4,4,4-^2H]3HB] came in with a circulatory turnover flux of about 40 nmol/g/min.
The same measure for `[13CH3][13CH](O)[13C](=O)[O-].[Na+]` (stereo not shown) [^13C-labeled lactate, Sodium [U-^13C]lactate]: 380 nmol/g/min; for `[2H]C(C)(O)C(=O)[O-].[Na+]` (stereo not shown) [^2H-labeled lactate, Sodium [2-^2H]lactate]: 550 nmol/g/min.
